Measured values from US8268818B2, “Inhibitors of C-MET and uses thereof” (Vertex Pharmaceuticals Incorporated, priority 2006, dated 2012).

What follows are molecules tested against T1, PI3Kγ (Homo sapiens, UniProt P48736) (assay: PI3K inhibition assay, Protocol A (33P incorporation, hydrophobic membrane filter plate)). Conditions: 40 μM ATP, 65 μM PI(4,5)P2 diC8, 75 nM PI3Kγ, average if more than one result, read-out: PI3Kγ enzyme inhibition Ki.
Format: biochemical
Description: Compounds were screened for their ability to inhibit PI3Kγ using one of the assays below. To each well of a 96 well polystyrene plate [Corning, Costar Item No. 3696], was added 1.5 μl of a compound of the invention (at various concentrations) along with 28.5 W of kinase buffer [50 mM HEPES (pH 7.4), 5 mM DTT, 5 mM MgCl2 and 50 mM NaCl] containing 137 μM phosphatidylinositol(4,5) bisphosphate diC8 [PI(4,5)P2; Echelon Biosciences, Cat. No. P-4508] and 158 nM PI3Ky. After mixing, 30 μl of kinase buffer containing 80 μM ATP was added to start the reaction. Final substrate concentrations in the assay were 50 mM HEPES (pH 7.4), 5 mM DTT, 5 mM MgCl2, 50 mM NaCl, 40 μM ATP (200 μCi/μmole ATP), 65 μM PI(4,5)P2 and 75 nM PI3Kγ. After 20 minutes at room temperature (25° C.), the reaction was stopped with 30 μl of kinase buffer containing 150 mM EDTA and 1.5 M ammonium sulfate. Each well of a 96 well hydrophobic membrane filter plate [Millipore, 0.45 μm hydrophobic membrane, Cat. No. […]] was washed with 100 μL wash buffer [50 mM HEPES (pH 7.4), 5 mM DTT, 5 mM MgCl2, 50 mM NaCl, 5 mM EDTA and 0.5 M ammonium sulfate]. 60 μL of the stopped assay was transferred to each well of the filter plate and soaked for 30 minutes. […] The filter plate was allowed to stand overnight prior to determining ^33P incorporation on a Perkin-Elmer Microbeta TriluxTM liquid scintillation counter and luminescence counter. […]

T1 sequence (P48736 whole entry, species assumed): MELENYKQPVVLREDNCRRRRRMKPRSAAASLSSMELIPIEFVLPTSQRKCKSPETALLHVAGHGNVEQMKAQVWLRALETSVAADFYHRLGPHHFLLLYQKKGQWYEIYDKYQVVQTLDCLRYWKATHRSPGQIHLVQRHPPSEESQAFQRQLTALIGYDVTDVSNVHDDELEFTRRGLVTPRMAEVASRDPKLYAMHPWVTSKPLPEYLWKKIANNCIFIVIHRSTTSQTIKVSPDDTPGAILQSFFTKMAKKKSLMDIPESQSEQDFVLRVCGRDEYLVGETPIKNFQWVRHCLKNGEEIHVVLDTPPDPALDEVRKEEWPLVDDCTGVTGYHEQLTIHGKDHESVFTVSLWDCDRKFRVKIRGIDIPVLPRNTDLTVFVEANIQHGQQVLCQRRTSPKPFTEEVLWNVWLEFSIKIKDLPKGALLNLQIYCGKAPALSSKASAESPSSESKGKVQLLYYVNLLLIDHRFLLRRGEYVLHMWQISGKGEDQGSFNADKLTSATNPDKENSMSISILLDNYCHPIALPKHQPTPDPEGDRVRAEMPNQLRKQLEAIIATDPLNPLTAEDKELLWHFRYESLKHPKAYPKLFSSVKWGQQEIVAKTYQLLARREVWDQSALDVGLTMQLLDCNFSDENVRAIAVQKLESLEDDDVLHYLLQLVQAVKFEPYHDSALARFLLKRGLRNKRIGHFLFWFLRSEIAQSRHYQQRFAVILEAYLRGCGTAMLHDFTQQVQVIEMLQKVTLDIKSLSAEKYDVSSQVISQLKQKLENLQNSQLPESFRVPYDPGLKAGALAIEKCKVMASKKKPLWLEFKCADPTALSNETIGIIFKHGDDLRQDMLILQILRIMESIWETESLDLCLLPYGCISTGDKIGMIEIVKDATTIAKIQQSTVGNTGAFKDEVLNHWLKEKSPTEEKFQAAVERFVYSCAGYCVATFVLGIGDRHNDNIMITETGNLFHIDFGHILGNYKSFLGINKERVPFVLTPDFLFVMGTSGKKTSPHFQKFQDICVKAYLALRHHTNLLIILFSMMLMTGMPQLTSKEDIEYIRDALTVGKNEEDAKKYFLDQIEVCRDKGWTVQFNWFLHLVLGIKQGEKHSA

Ki [nM]	SMILES
1000 to 5000	CCOC(=O)c1ccc(-c2sc(NC(=O)C3CC3)nc2C)o1 [Compound 1, Ethyl 5-(2-(cyclopropanecarboxamido)-4-methylthiazol-5-yl)furan-2-carboxylate]

The molecules below were run against T1, PI3Kγ (assay: PI3K inhibition assay, Protocol B (33P-ATP, glass fiber filter plate)). Conditions: Protocol B; 100 μM ATP, 46 μM PI(4,5)P2 diC16, 16.6 nM PI3Kγ; average if more than one result; read-out: PI3Kγ enzyme inhibition Ki.
Format: biochemical
Description: Compounds were screened for their ability to inhibit PI3Kγ using one of the assays below.
To each well of a 96 well polystyrene plate [Corning Costar Item No. 3795], 61 μL of Reaction Mix [55 mM HEPES pH 7.5, 11 mM MgCl2, 27 mM NaCl, 5.5 mM DTT, 0.11 mg/mL BSA, 51 μM phosphatidylinositol(4,5)bisphosphate diC16 (PI(4,5)P2; Avanti Polar Lipids, Cat. No. 840046P) and 18 nM PI3Kγ] was added. Separately, ten 2.5-fold serial dilutions of compounds of the invention were prepared in 100% DMSO with the last two wells reserved for no inhibitor controls (enzyme+no compound and no enzyme control+no compound). 1 μL it of compound or DMSO alone was added by 12-channel hand pipet and incubated for 10 minutes at room temperature (25° C.). To initiate the reaction, 5 μl of ATP Mix [49 mM HEPES pH 7.5 and 1340 ^33P-ATP was added and allowed to incubate for 30 min. at 25° C. Final concentrations of the reaction were 50 mM HEPES 7.5, 10 mM MgCl2, 25 mM NaCl, 5 mM DTT, 0.1 mg/mL BSA, 46 μM PI(4,5)P2, 16.6 nM PI3Kγ, and 100 μM ATP. Final inhibitor concentrations ranged from 10 μM to 1 nM.
After incubation, 60 μL of the reaction was quenched by transferring to 504 of 20% TCA/Water in each well of a 96 well glass fiber filter plate [Millipore Cat. No. MAFBN0B50]. The plate was dried by vacuum and then washed five times in a Bio-Tek Instruments ELX-405 Auto Plate Washer with 150 μL of 5% TCA/Water. 50 μL of scintillation fluid was added to each well and the plate was read immediately on a Perkin-Elmer TopCount™ NXT liquid scintillation counter.
Inhibition data was background subtracted (no enzyme control+no inhibitor control) and fit to the competitive tight binding Ki equation described by Morrison and Stone. [J. F. Morrison and S. R. Stone, Comments Mol. Cell. Biophys. 2 (1985) 347-368].

SMILES	Ki [nM]
CC(=O)Nc1nc(C)c(-c2ccc(S(=O)(=O)Nc3c(F)cccc3F)o2)s1 [Compound 70]	100 to 1000
COC(=O)c1nc(NC(C)=O)sc1-c1ccc(S(=O)(=O)N(C)Cc2ccccc2)o1 [Compound 71]	1000 to 5000
COC(=O)c1nc(NC(C)=O)sc1-c1ccc(S(=O)(=O)NCc2ccccc2)o1 [Compound 72]	100 to 1000
CC(=O)Nc1nc(C)c(-c2ccc(S(=O)(=O)N[C@@H]3c4ccccc4C[C@@H]3O)o2)s1 [Compound 73]	< 100
CC(=O)Nc1nc(C)c(-c2ccc(S(=O)(=O)N[C@H]3c4ccccc4C[C@H]3O)o2)s1 [Compound 74]	< 100

Continued, values first:

Ki [nM]	SMILES
< 100	COC(=O)C(NS(=O)(=O)c1ccc(-c2sc(NC(C)=O)nc2C)o1)c1ccccc1 (centres unmarked) [Compound 62]
< 100	CC(=O)Nc1nc(C)c(-c2ccc(S(=O)(=O)NC(C#N)c3ccccc3)o2)s1 (centres unmarked) [Compound 63]
< 100	CC(=O)Nc1nc(C)c(-c2ccc(S(=O)(=O)NCC#N)o2)s1 [Compound 64]
< 100	CC(=O)Nc1nc(C)c(-c2ccc(S(=O)(=O)Nc3ccccc3C)o2)s1 [Compound 65]
< 100	CC[C@@H](NS(=O)(=O)c1ccc(-c2sc(NC(C)=O)nc2C)o1)c1ccccc1 [Compound 66]
< 100	CC(=O)Nc1nc(C)c(-c2ccc(S(=O)(=O)NCc3ccccc3C)o2)s1 [Compound 67]
< 100	CC(=O)Nc1nc(C)c(-c2ccc(S(=O)(=O)NCC(F)(F)F)o2)s1 [Compound 68]
< 100	CC(=O)Nc1nc(C)c(-c2ccc(S(=O)(=O)Nc3ccccc3F)o2)s1 [Compound 69]
